Data: patent US8697692B2, “Pyrrolo [3,2-c] pyridine-4-one 2-indolinone protein kinase inhibitors” (Shanghai Hengrui Pharmaceutical Co., Ltd., priority 2006, dated 2014)

System: HUVEC cell
Test: Cell Proliferation Inhibition VEGF-R2 Assay (SRB method)
Type: cell-based, homo sapient
Details: Homo sapiens; HUVEC cells, 72 hours exposure, Sulforhodamine B; read-out: IC50 (VEGFR/HUVEC)
Procedure, shortened: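 HUVECs grown to ~85% confluence in DMEM/F12 + 10% FBS, then exposed to 6–7 compound concentrations for 72 h at 37 °C, 5% CO2; vehicle controls received 0.5% DMSO medium.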

Point of comparison: `CCN(CC)CCN1CCc2[nH]c(/C=C3\C(=O)Nc4cccc(-c5ccc(Cl)cc5F)c43)c(C)c2C1=O` [Example 34, 2-[4-(4-Chloro-2-fluoro-phenyl)-2-oxo-1,2-dihydro-indol-3-ylidenemethyl]-5-(2-diethylamino-ethyl)-3-methyl-1,5,6,7-tetrahydro-pyrrolo[3,2-c]pyridin-4-one], IC50 120 nM. Against it:
- CCN(CC)CCN1CCc2[nH]c(/C=C3\C(=O)Nc4ncnc(Nc5ccc(F)c(Cl)c5)c43)c(C)c2C1=O [Example 12, 4-(3-Chlor O-4-fluoro-phenylamino)-5-[5-(2-diethylamino-ethyl)-3-methyl-4-oxo-4,5,6,7-tetrahydro-1H-pyrrolo[3,2-c]pyridine-2-ylmethylene]-5,7-dihydro-pyrrolo[2,3-d]pyrimidin-6-one] — 25-fold higher, 3000 nM
- Cc1c(/C=C2\C(=O)Nc3ccc(Cl)cc32)[nH]c2c1C(=O)N(CCN1CCOCC1)CC2 [Example 16, 2-(5-Chloro-2-oxo-1,2-dihydro-indol-3-ylidenemethyl)-3-methyl-5-(2-morpholin-4-yl-ethyl)-1,5,6,7-tetrahydro-pyrrolo[3,2-c]pyridin-4-one] — 4.8-fold higher, 580 nM
- Cc1c(/C=C2\C(=O)Nc3ncnc(Nc4ccc(F)c(Cl)c4)c32)[nH]c2c1C(=O)N(CCN1CCOCC1)CC2 [Example 24, 4-(3-Chloro-4-fluoro-phenylamino)-5-[3-methyl-5-(2-morpholin-4-yl-ethyl)-4-oxo-4,5,6,7-tetrahydro-1H-pyrrolo[3,2-c]pyridine-2-ylmethylenene]-5,7-dihydro-pyrrolo[2,3-d]pyrimidin-6-one] — 20-fold higher, 2420 nM
- CCN(CC)CCN1CCc2[nH]c(/C=C3\C(=O)Nc4cccc(Br)c43)c(C)c2C1=O [Example 30, 2-(4-Bromo-2-oxo-1,2-dihydro-indol-3-ylidenemethyl)-5-(2-diethylamino-ethyl)-3-methyl-1,5,6,7-tetrahydro-pyrrolo[3,2-c]pyridin-4-one] — 1.8-fold higher, 220 nM
- CCN(CC)CCN1CCc2[nH]c(/C=C3\C(=O)Nc4cccc(C5CCNCC5)c43)c(C)c2C1=O [Example 31, 5-(2-Diethylamino-ethyl)-3-methyl-2-(2-oxo-4-piperidin-4-yl-1,2-dihydro-indol-3-ylidenemethyl)-1,5,6,7-tetrahydro-pyrrolo[3,2-c]pyridin-4-one] — 1.6-fold higher, 190 nM
- CCN(CC)CCN1CCc2[nH]c(/C=C3\C(=O)Nc4ccc(OC)cc43)c(C)c2C1=O [Example 35, 5-(2-Diethylamino-ethyl)-2-(5-methoxy-2-oxo-1,2-dihydro-indol-3-ylidenemethyl)-3-methyl-1,5,6,7-tetrahydro-pyrrolo[3,2-c]pyridin-4-one] — within 1.5-fold, 130 nM
- CCN(CC)CCN1CCc2[nH]c(/C=C3\C(=O)Nc4cccc(-c5cccc(Cl)c5F)c43)c(C)c2C1=O [Example 36, 2-[4-(3-Chloro-2-fluoro-phenyl)-2-oxo-1,2-dihydro-indol-3-ylidenemethyl]-5-(2-diethylamino-ethyl)-3-methyl-1,5,6,7-tetrahydro-pyrrolo[3,2-c]pyridin-4-one] — within 1.5-fold, 110 nM
- CCN(CC)CCN1CCc2[nH]c(/C=C3\C(=O)Nc4cccc(CCO)c43)c(C)c2C1=O [Example 37, 5-(2-Diethylamino-ethyl)-2-[4-(2-hydroxy-ethyl)-2-oxo-1,2-dihydro-indol-3-ylidenemethyl]-3-methyl-1,5,6,7-tetrahydro-pyrrolo[3,2-c]pyridin-4-one] — within 1.5-fold, 110 nM
- CCN(CC)CCN1CCc2[nH]c(/C=C3\C(=O)Nc4cccc(-c5cccc(F)c5F)c43)c(C)c2C1=O [Example 39, 5-(2-diethylamino-ethyl)-2-[4-(2,3-difluoro-phenyl)-2-oxo-1,2-dihydro-indol-3-ylidenemethyl]-3-methyl-1,5,6,7-tetrahydro-pyrrolo[3,2-c]pyridin-4-one] — 2.4-fold lower, 50 nM
- Cc1c(/C=C2\C(=O)Nc3ccc(Br)cc32)[nH]c2c1C(=O)N(CCN1CCCC1)CC2 [Example 40, 2-(5-Bromo-2-oxo-1,2-dihydro-indol-3-ylidenemethyl)-3-methyl-5-(2-pyrrolidin-1-yl-ethyl)-1,5,6,7-tetrahydro-pyrrolo[3,2-c]pyridin-4-one] — within 1.5-fold, 130 nM
- Cc1c(/C=C2\C(=O)Nc3cccc(CCO)c32)[nH]c2c1C(=O)N(CCN1CCOCC1)CC2 [Example 42, 2-[4-(2-Hydroxy-ethyl)-2-oxo-1,2-dihydro-indol-3-ylidenemethyl]-3-methyl-5-(2-morpholin-4-yl-ethyl)-1,5,6,7-tetrahydro-pyrrolo[3,2-c]pyridin-4-one] — 2.3-fold higher, 280 nM
- Cc1c(/C=C2\C(=O)Nc3ncc(Br)cc32)[nH]c2c1C(=O)N(CCN1CCOCC1)CC2 [Example 50, 2-(5-Bromo-2-oxo-1,2-dihydro-pyrrolo[2,3-b]pyridin-3-ylidenemethyl)-3-methyl-5-(2-morpholin-4-yl-ethyl)-1,5,6,7-tetrahydro-pyrrolo[3,2-c]pyridin-4-one] — 9.7-fold higher, 1160 nM
- Cc1c(/C=C2\C(=O)Nc3cccc(C4CCNCC4)c32)[nH]c2c1C(=O)N(CCN1CCOCC1)CC2 [Example 52, 3-Methyl-5-(2-morpholin-4-yl-ethyl)-2-(2-oxo-4-piperidin-4-yl-1,2-dihydro-indol-3-ylidenemethyl)-1,5,6,7-tetrahydro-pyrrolo[3,2-c]pyridin-4-one] — 2.2-fold higher, 260 nM
- Cc1c(/C=C2\C(=O)Nc3cccc(-c4cccc(F)c4F)c32)[nH]c2c1C(=O)N(CCN1CCCC1)CC2 [Example 59, 2-[4-(2,3-Difluoro-phenyl)-2-oxo-1,2-dihydro-indol-3-ylidenemethyl]-3-methyl-5-(2-pyrrolidin-1-yl-ethyl)-1,5,6,7-tetrahydro-pyrrolo[3,2-c]pyridin-4-one] — 2.5-fold higher, 300 nM
